Test results reported in article PMC6445242, “Novel tetrazole and cyanamide derivatives as inhibitors of cyclooxygenase-2 enzyme: design, synthesis, anti-inflammatory evaluation, ulcerogenic liability and docking study” (Journal of Enzyme Inhibition and Medicinal Chemistry, 2017).
Marks after values point to notes of the source that are not given here.

What was measured:
[1] = tested on: carrageenan-induced paw oedema; assay: Carrageenan-induced rat paw oedema; assay type: in vivo; settings: 50 mg/kg oral; for %Inhibition of paw oedema, 1h / Paw thickness change mean ± SEM, 1h: 1 h after carrageenan; for %Inhibition of paw oedema, 3h / Paw thickness change mean ± SEM, 3h: 3 h after carrageenan; for Paw thickness change mean ± SEM, 3h / Paw thickness change mean ± SEM, 1h / Paw thickness change mean ± SEM, 5h: n = 4; for %Inhibition of paw oedema, 5h / Paw thickness change mean ± SEM, 5h: 5 h after carrageenan
Experimental: Female wister rats (150-200 g) were used in this study. The animals were kept at controlled conditions (temperature 23 ± 2 °C, humidity 60 ± 10%) and a 12/12-h light/dark cycle with access to food and water. All procedures relating to animal care and treatments were performed according to protocols approved by the Research Ethical Committee of Faculty of Pharmacy Beni-Suef University (2014-Beni-Suef, Egypt). The anti-inflammatory activity of the synthesised compounds was determined in vivo by […]-induced paw oedema method in rats[49]. Rats were divided into 21 groups of four animals each, and then, they were fasted overnight with free access to water before the experiment. Before any drug administration, thickness of the left hind paw of each rat was measured in millimetres. Group 1 served as a control and administered the vehicle (2.5% Tween 80).

ovine COX-2 = target: T1, ovine COX-2 (Ovis aries, UniProt P79208); assay: In vitro COX-2 inhibition assay (EIA kit, Cayman); settings: for IC50: IC50 COX-2, ovine COX-2, mean of two determinations; for SI, COX-2 selectivity index (COX-1 IC50/COX-2 IC50): ovine enzymes
T1 sequence (P79208 17-603): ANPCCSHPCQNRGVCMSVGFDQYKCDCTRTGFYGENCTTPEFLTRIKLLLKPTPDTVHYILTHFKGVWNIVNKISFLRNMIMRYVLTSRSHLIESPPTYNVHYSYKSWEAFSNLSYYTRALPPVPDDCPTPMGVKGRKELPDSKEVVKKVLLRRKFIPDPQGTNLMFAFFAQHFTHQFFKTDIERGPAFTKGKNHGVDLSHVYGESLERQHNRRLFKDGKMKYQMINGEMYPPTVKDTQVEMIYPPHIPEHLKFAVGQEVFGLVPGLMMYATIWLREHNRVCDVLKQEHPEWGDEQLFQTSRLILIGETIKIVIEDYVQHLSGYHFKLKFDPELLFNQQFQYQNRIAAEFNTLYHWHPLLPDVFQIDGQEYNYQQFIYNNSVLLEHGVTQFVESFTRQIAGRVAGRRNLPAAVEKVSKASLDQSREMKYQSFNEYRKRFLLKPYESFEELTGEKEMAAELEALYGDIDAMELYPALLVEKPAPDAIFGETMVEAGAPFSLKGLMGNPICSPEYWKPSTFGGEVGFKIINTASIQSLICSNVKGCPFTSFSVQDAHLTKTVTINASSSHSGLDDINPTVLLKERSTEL
Experimental: (§1) The peroxidase activity of cyclooxygenase enzyme isoforms was measured using the COX activity assay kit. The ability of the test compounds to inhibit both ovine COX-1 and COX-2 enzymes was explored in vitro using a colorimetric enzyme immunoassay (EIA) kit. The appearance of oxidised N,N,N′,N′-tetramethyl-p-phenylenediamine (TMPD) was monitored at 590 nm. The kit includes isozyme-specific inhibitors for distinguishing COX-2 activity from that of COX-1.

ovine COX-1 = target: T2, ovine COX-1 (Ovis aries, UniProt P05979); assay: In vitro COX-1 inhibition assay (EIA kit, Cayman)
T2 sequence (P05979 25-600): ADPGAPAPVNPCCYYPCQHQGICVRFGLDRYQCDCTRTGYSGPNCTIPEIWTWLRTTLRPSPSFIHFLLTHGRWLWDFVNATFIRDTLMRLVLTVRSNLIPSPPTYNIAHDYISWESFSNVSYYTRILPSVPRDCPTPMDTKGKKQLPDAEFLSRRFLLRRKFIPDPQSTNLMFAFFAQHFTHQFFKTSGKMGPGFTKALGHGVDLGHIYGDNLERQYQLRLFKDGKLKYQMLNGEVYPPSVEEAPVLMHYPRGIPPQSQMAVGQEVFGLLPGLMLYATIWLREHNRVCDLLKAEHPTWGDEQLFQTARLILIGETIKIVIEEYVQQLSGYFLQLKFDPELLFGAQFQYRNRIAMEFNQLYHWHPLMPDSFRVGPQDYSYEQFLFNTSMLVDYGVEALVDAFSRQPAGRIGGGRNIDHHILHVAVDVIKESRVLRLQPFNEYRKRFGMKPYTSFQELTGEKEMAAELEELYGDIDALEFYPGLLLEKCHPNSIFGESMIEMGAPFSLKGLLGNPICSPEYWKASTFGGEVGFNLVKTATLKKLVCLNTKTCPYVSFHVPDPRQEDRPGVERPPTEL
Experimental: as §1

rat's gastric tissue = assay: Histopathological investigation of stomach; assay type: in vivo; settings: haematoxylin and eosin, after ulcerogenic liability dosing
Experimental: Whole rats stomach were collected, selected stomach samples from each rat were fixed in 10% neutral buffered formalin for 48 h and routinely processed for paraffin embedding. 5 μm Thickness sections were obtained then stained with haematoxylin and eosin for histopathological evaluation.

[2] = tested on: gastric mucosa (ulcer number, ulcer index); assay: Ulcerogenic liability; assay type: in vivo, rat; settings: 50 mg/kg oral, three successive days, rats; for Ulcer index: sum of % incidence, average severity and average number of ulcers
Experimental: Female wister rats (150–200 g) were used in this study. The animals were kept at controlled conditions (temperature 23 ± 2 °C, humidity 60 ± 10%) and a 12/12-h light/dark cycle with access to food and water. All procedures relating to animal care and treatments were performed according to protocols approved by the Research Ethical Committee of Faculty of Pharmacy Beni-Suef University (2014-Beni-Suef, Egypt).
[…]. Forty-eight rats were used in this study, divided into 12 groups and fasted for 18 h before drug administration. The control group received the vehicle (2.5% Tween 80). Other groups received test compounds, celecoxib or indomethacin at a dose of 50 mg/kg, then animals were fed after 2 h. Rats were given the specified dose orally for three successive days. Rats were sacrificed after 2 h of the last dose, then the stomach of each rat was removed and opened along the greater curvature for determination of the ulcer number and ulcer index according to the reported method.

| Structure (SMILES) | melting point [°C] | %Inhibition of paw oedema, 1h [1] [%] | %Inhibition of paw oedema, 3h [1] [%] | Paw thickness change mean ± SEM, 3h [1] [mm] | IC50 (ovine COX-2) [nM] | SI, COX-2 selectivity index (COX-1 IC50/COX-2 IC50) (ovine COX-2) | IC50 (ovine COX-1) [µM] | Paw thickness change mean ± SEM, 1h [1] [mm] | %Inhibition of paw oedema, 5h [1] [%] | Paw thickness change mean ± SEM, 5h [1] [mm] | Histopathological findings in stomach (rat's gastric tissue) | Average number of ulcers [2] | Ulcer index [2] | Ulcer index ([2]; listed as indomethacin) |
| --- | --- | --- | --- | --- | --- | --- | --- | --- | --- | --- | --- | --- | --- | --- |
| COc1ccc(/C=C/C(=O)c2ccc(-n3cnnn3)cc2)cc1OC [Compound 3a, (ZE)-1-[4-(1H-Tetrazol-1-yl)phenyl]-3-(3,4-dimethoxyphenyl)prop-2-en-1-one] | 214 to 216 | 25 | 9 | 1.53 ± 0.09 | 570 | 22 | 12.5 | – | – | – | – | – | – | – |
| COc1cc(/C=C/C(=O)c2ccc(-n3cnnn3)cc2)cc(OC)c1OC [Compound 3b, (ZE)-1-[4-(1H-Tetrazol-1-yl)phenyl]-3-(3,4,5-trimethoxyphenyl)prop-2-en-1-one] | 215 to 217 | 54 | 13 | 1.45 ± 0.18 | 240 | 28.08 | 6.74 | 0.73 ± 0.08 | 0 | 1.33 ± 0.08 | – | – | – | – |
| N#Cc1c(-c2ccccc2)cc(-c2ccc(-n3cnnn3)cc2)nc1N [Compound 4a, 6-[4-(1H-Tetrazol-1-yl)phenyl]-2-amino-4-phenylnicotinonitrile] | 238 to 240 | 51 | 10 | 1.50 ± 0.19 | 430 | 14.48 | 6.23 | 0.78 ± 0.08 | 0 | 1.33 ± 0.05 | – | – | – | – |
| N#Cc1c(-c2cccnc2)cc(-c2ccc(-n3cnnn3)cc2)nc1N [Compound 4b, 6′-[4-(1H-Tetrazol-1-yl)phenyl]-2′-amino-[3,4′-bipyridine]-3′-carbonitrile] | 238 to 240 | 19 | 9 | 1.53 ± 0.08 | 270 | 22.62 | 6.11 | 1.28 ± 0.10 | 4 | 1.28 ± 0.14 | – | – | – | – |
| N#Cc1c(-c2cccnc2)cc(-c2ccc(-n3cnnn3)cc2)nc1O [Compound 5b, 6′-[4-(1H-Tetrazol-1-yl)phenyl]-2′-hydroxy-[3,4′-bipyridine]-3′-carbonitrile] | 287 to 289 | 38 | 33 | 1.13 ± 0.15 | 1140 | 10.88 | 12.4 | 0.98 ± 0.18 | 17 | 1.10 ± 0.15 | – | – | – | – |
| COc1ccc(-c2cc(-c3ccc(-n4cnnn4)cc3)[nH]c(=O)c2C#N)cc1 [Compound 5c, 6-[4-(1H-Tetrazol-1-yl)phenyl]-4-(4-methoxyphenyl)-2-oxo-1,2-dihydropyridine-3-carbonitrile] | > 300 | 57 | 30 | 1.18 ± 0.11 | 710 | 15.81 | 11.2 | 0.68 ± 0.09 | 14 | 1.15 ± 0.05 | – | – | – | – |
| C/C(=N\Nc1ccc(S(C)(=O)=O)cc1)c1ccc(-n2cnnn2)cc1 [Compound 6a, (ZE)-1-{4-[1-(2-(4-Methanesulphonylphenyl)hydrazono)ethyl]phe-nyl}-1H-tetrazole] | 258 to 260 | 30 | 42 | 0.98 ± 0.23 | 380 | 24.23 | 9.21 | 1.10 ± 0.23 | 4 | 1.28 ± 0.08 | – | – | – | – |
| C/C(=N\Nc1ccc(S(N)(=O)=O)cc1)c1ccc(-n2cnnn2)cc1 [Compound 6b] | 255 to 257 | – | 37 | 1.05 ± 0.09 | 510 | 25.27 | 12.9 | 0.80 ± 0.26 | 12 | 1.18 ± 0.13 | – | – | – | – |
| COc1ccc(/C=C/C(=O)c2ccc(NC#N)cc2)cc1OC [Compound 7a, (ZE)-N-{4-[3–(3,4-Dimethoxyphenyl)acryloyl]phenyl}cyanamide] | 112 to 114 | 24 | 22 | 1.30 ± 0.15 | 260 | 13.26 | 3.45 | 1.20 ± 0.11 | 0 | 1.33 ± 0.08 | – | – | – | – |
| COc1cc(/C=C/C(=O)c2ccc(NC#N)cc2)cc(OC)c1OC [Compound 7b, (ZE)-N-{4-[3–(3,4,5-Trimethoxyphenyl)acryloyl]phenyl}cyanamide] | 109 to 111 | 32 | 43 | 0.95 ± 0.17 | 240 | 14.66 | 3.52 | 1.08 ± 0.11 | 0 | 1.33 ± 0.08 | – | – | – | – |
| COc1ccc2c(c1)c(CC(=O)O)c(C)n2C(=O)c1ccc(Cl)cc1 [Indomethacin, reference compound] | – | – | – | – | – | – | – | – | – | – | Complete disruption of protective mucosal layer | 14.25*** | 22.50*** | 22.5 |
